From the Kinase Knowledgebase extract (Sharma et al. 2016)
pIC50: −log10 of the molar value.

target: EGFR (rat) (UniProt P00533); details: rat-1/her cells
Sequence (P00533 whole entry, looked up): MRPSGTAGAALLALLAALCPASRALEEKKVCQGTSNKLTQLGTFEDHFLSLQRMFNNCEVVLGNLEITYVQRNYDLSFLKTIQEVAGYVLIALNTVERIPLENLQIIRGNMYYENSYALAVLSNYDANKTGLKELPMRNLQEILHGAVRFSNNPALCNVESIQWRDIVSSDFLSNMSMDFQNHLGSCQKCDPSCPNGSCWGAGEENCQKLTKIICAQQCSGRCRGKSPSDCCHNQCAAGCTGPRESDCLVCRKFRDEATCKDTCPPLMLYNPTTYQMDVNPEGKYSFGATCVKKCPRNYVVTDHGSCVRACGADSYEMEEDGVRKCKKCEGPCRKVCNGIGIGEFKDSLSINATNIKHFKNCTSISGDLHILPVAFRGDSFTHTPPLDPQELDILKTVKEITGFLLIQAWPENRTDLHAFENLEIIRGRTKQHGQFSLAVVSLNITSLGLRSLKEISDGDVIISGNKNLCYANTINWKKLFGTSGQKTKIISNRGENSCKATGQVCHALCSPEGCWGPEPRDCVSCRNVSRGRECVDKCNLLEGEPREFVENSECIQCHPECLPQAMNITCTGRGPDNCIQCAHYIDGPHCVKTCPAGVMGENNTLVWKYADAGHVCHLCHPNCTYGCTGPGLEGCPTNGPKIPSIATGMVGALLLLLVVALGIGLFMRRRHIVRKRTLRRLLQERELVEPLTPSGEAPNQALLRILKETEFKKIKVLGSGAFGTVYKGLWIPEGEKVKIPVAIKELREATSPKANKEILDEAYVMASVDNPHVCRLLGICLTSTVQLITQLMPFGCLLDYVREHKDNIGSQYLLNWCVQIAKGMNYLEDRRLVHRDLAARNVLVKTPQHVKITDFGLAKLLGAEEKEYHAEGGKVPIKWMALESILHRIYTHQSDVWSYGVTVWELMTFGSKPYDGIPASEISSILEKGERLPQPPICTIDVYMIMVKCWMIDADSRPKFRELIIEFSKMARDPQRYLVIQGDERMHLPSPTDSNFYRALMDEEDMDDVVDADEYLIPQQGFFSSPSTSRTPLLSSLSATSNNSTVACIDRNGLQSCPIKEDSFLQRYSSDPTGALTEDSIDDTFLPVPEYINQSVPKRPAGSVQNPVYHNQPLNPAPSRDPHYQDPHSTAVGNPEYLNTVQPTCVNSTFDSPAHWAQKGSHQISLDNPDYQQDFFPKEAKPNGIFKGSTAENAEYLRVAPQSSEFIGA

Compound	pIC50
COc1c(Br)cc(C=O)c(O)c1Br	4.46
O=Cc1cc(Br)cc(Br)c1O	3.92
COC1=C(Br)C(=O)[C@]2(C=C1Br)CO2	5.00
COC1=C(Br)C(=O)[C@](CC#N)(OC(C)=O)C=C1Br	4.26

same assay, conditions: rat-1/her cells, dose or concentration not given here

Compound	inhibition [%]
COc1c(Br)cc(CO)c(O)c1Br	0
COc1ccc(C=O)c(O)c1	0
COc1c(Br)cc2c(c1Br)OCO2	0
COc1c(Br)cc(CC#N)c(O)c1Br	0
COC1=C(Br)[C@@H](O)[C@@](O)(CC#N)C=C1Br	0
COc1c(Br)cc(O)c(O)c1Br	0
COC1=C(Br)[C@H](O)[C@@](O)(CC#N)C=C1Br	0
COC1=C(Br)C(=O)[C@@](O)(CC#N)C=C1Br	0
COC1=C(Br)C(O)(O)[C@@](O)(CC#N)CC1Br (stereo partly drawn)	0
